IC50 data for 51 compounds are collected here from patent publication US9029559B2, “Substituted 3-heteroaroylamino-propionic acid derivatives and their use as pharmaceuticals” (SANOFI, priority 2011, dated 2015).

By IC50 is commonly meant the concentration that inhibits the measured activity by half.

Recombinant human cathepsin A, sequence (P10619 29-326): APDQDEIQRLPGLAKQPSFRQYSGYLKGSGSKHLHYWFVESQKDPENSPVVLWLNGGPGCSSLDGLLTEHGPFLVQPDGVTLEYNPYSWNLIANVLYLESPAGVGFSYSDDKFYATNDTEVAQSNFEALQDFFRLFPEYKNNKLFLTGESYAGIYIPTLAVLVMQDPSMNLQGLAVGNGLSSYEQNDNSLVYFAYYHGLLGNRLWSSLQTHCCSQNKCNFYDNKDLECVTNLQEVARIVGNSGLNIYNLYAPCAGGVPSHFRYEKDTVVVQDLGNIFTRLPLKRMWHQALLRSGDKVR
Recombinant human cathepsin A, sequence (P10619 327-480): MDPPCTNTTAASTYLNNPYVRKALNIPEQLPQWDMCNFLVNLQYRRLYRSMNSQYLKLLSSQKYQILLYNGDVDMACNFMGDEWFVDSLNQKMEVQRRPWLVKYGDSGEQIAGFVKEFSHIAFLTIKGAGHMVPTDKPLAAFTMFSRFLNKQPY

The first assay concerns the target Recombinant human cathepsin A (Homo sapiens (Human), UniProt P10619). The experiment in a line: Cathepsin A inhibitory activity (cleavage of Bodipy FL-labeled bradykinin, microfluidic capillary electrophoresis). Particulars: read-out: Activity (Cathepsin A inhibitory activity, IC50). In kind it is biochemical.
Method: Pharmacological Tests a) Cathepsin A Inhibitory Activity
Briefly, cathepsin A was incubated at 10 μg/ml with cathepsin L at 1 μg/ml in activation buffer (25 mM 2-(morpholin-4-yl)-ethanesulfonic acid (MES), pH 6.0, containing 5 mM dithiothreitol (DTT)) for 15 min at 37° C.
The activated cathepsin A was diluted in assay buffer (25 mM MES, pH 5.5, containing 5 mM DTT) and mixed with the test compound (dissolved in assay buffer containing (v/v) 3% DMSO) or, in the control experiments, with the vehicle in a multiple assay plate. After incubation for 15 min at room temperature, as substrate then bradykinin carrying an N-terminal ®Bodipy FL (4,4-difluoro-5,7-dimethyl-4-bora-3a,4a-diaza-s-indacene-3-propionyl) label (JPT Peptide Technologies GmbH; dissolved in assay buffer) was added to the mixture. […] After incubation for 15 min at room temperature the reaction was stopped by the addition of stop buffer (130 mM 2-(4-(2-hydroxy-ethyl)-piperazin-1-yl)-ethanesulfonic acid, pH 7.4, containing (v/v) 0.013% ®Triton X-100, 0.13% Coating Reagent 3 (Caliper Life Sciences), 6.5% DMSO and 20 μM ebelactone B (Sigma, #E0886)).
Uncleaved substrate and product were then separated by a microfluidic capillary electrophoresis on a LabChip® 3000 Drug Discovery System (12-Sipper-Chip; Caliper Life Sciences) and quantified by determination of the respective peak areas. Substrate turnover was calculated by dividing product peak area by the sum of substrate and product peak areas, and the enzyme activity and the inhibitory effect of the test compound thus quantified.
Regarding `O=C(O)C[C@H](NC(=O)c1cccc(-c2ccccc2F)n1)c1ccc(Cl)cc1Cl` [compound 605], the concentration for half-maximal inhibition (IC50) came to 2.28 µM.

Staying with this assay, now noted: read-out: Activity (IC50, cathepsin A inhibition).
Consider `COc1cc(C(=O)NC(CC(=O)O)c2ccccc2Cl)ccn1` (stereo not drawn) [compound 536], for which the 50% inhibitory concentration (IC50) came to 5.08 µM.

Turning to `O=C(O)CC(NC(=O)c1cc(-c2ccccc2)ccn1)c1ccccc1Cl` (stereo not drawn) [compound 565], the IC50 came to 4.07 µM. For the compound `COc1ccc(C(=O)N[C@@H](CC(=O)O)c2ccccc2Cl)nc1-c1cccc(C2(O)COC2)c1` [compound 495], the IC50 stood at 3.89 µM. On to `Cc1ccnc(C(=O)NC(CC(=O)O)c2ccccc2Cl)c1` (stereo not drawn) [compound 528], for which the IC50 was 5.81 µM.

Consider `Cc1cc(C)nc(C(=O)NC(CC(=O)O)c2ccccc2Cl)c1` (stereo not drawn) [compound 533], for which the IC50 was 6.29 µM. On the same count and under the same terms, then `O=C(O)CC(NC(=O)c1cncc(-c2ccccc2)c1)c1ccccc1Cl` (stereo not drawn) [compound 566], with 11.7 µM; and `O=C(O)CC(NC(=O)c1ccc2cnccc2n1)c1ccccc1Cl` (stereo not drawn) [compound 544], with 11.1 µM; and `COc1ccc(C(=O)N[C@@H](CC(=O)O)c2ccccc2C)nc1-c1cccnc1` [compound 578], with 7.54 µM. In the case of `O=C(O)CC(NC(=O)c1ccnc(N2CCCC2)c1)c1ccccc1Cl` (stereo not drawn) [compound 553], the IC50 was found to be 11.1 µM.

Consider `O=C(O)CC(NC(=O)c1ccc2nc[nH]c2n1)c1ccccc1Cl` (stereo not drawn) [compound 542], for which the IC50 came out at 10.8 µM.

The assay is the same for the next values; noted with them: read-out: Activity (IC50, cathepsin A inhibitory activity).
For `COc1ccc(C(=O)N[C@@H](CC(=O)O)c2ccccc2Cl)nc1-c1ccc2ccccc2c1` [compound 427, (S)-3-(2-Chloro-phenyl)-3-[(5-methoxy-6-naphthalen-2-yl-pyridine-2-carbonyl)-amino]-propionic acid], the IC50 turned out to be 7.11 µM. As for `Cc1cccc(C(=O)N[C@@H](CC(=O)O)c2ccccc2C)n1` [compound 10], the IC50 came to 1.24 µM.

Regarding `COc1ccc(C(=O)N[C@@H](CC(=O)O)c2ccccc2Cl)nc1-c1cc(F)cc(F)c1` [compound 439], the IC50 amounted to 2.39 µM. As for `COc1ncc(C(=O)N[C@@H](CC(=O)O)c2ccccc2C)cc1-c1cccc(C)c1` [compound 417], the IC50 was found to be 4.86 µM. For `COc1cccnc1C(=O)N[C@@H](CC(=O)O)c1ccccc1C` [compound 9], the IC50 turned out to be 7.25 µM. Same read-out and setting: then `Cc1ccccc1[C@H](CC(=O)O)NC(=O)c1cncc(-c2ccccc2)c1` [compound 15], with 2.16 µM; and `COc1ccc(C(C)(C)C)cc1-c1nc(C(=O)N[C@@H](CC(=O)O)c2ccc(C)cc2)ccc1OC` [compound 240], with more than 10 µM. With `COc1ccc(C(=O)N[C@@H](CC(=O)O)c2ccccc2Cl)nc1-c1ccc(C)cc1C` [compound 450], the half-inhibitory concentration (IC50) is 1.6 µM. In the case of `COc1ccc(C(=O)N[C@@H](CC(=O)O)c2ccc(C)cc2)nc1-c1ccc(C)c(F)c1` [compound 223], the half-maximal inhibitory concentration (IC50) was determined as 1.29 µM. Same read-out and setting: as for `COc1ccc(C(=O)N[C@@H](CC(=O)O)c2ccccc2Cl)nc1-c1cccc(C#N)c1` [compound 433], the figure is 8.26 µM; as for `COc1ccc(C(=O)N[C@@H](CC(=O)O)c2ccc(C)cc2)nc1-c1ccccc1C(=O)N(C)C` [compound 228], 3.96 µM; as for `COc1ccc(C(=O)N[C@@H](CC(=O)O)c2ccccc2F)nc1-c1ccc(C)c(F)c1` [compound 290], 3.81 µM. As for `COc1ccccc1-c1cc(C(=O)N[C@@H](CC(=O)O)c2ccccc2C)cnc1OC` [compound 416], the concentration for half-maximal inhibition (IC50) amounted to 3.42 µM. In the case of `COc1ccccc1-c1cccc(C(=O)N[C@@H](CC(=O)O)c2ccccc2C)n1` [compound 44], the IC50 was 1.19 µM. For the compound `COc1ccc(C(=O)N[C@@H](CC(=O)O)c2ccc(C)cc2)nc1-c1ccc(C)o1` [compound 237], the IC50 was 3.54 µM.

Take `Cc1ccccc1[C@H](CC(=O)O)NC(=O)c1cc(-c2ccccc2)ccn1` [compound 39]: the IC50 was found to be 1.08 µM. For the compound `COc1ncc(C(=O)N[C@@H](CC(=O)O)c2ccccc2C)cc1-c1ccccc1` [compound 405], the IC50 stood at 3.9 µM. As for `COc1ccc(C(=O)N[C@@H](CC(=O)O)c2ccc(C)cc2)nc1-c1ccc2ccn(C)c2c1` [compound 251], the IC50 amounted to 8.94 µM. `COc1cc(Cl)ccc1-c1nc(C(=O)N[C@@H](CC(=O)O)c2ccccc2F)ccc1OC` [compound 299]: the half-maximal inhibitory concentration (IC50) came out at 1.83 µM. In the case of `COc1ccc(C(=O)N[C@@H](CC(=O)O)c2ccccc2F)nc1-c1cccc(C(F)(F)F)c1` [compound 253], the IC50 was found to be 4.06 µM. As for `Cc1ccccc1[C@H](CC(=O)O)NC(=O)c1cncc(-c2ccccc2F)c1` [compound 69], the IC50 was 1.4 µM. `Cc1cc(C)nc(C(=O)N[C@@H](CC(=O)O)c2ccccc2C)c1` [compound 51]: the half-maximal inhibitory concentration (IC50) amounted to 1.81 µM. As for `COc1ccc(C(=O)N[C@@H](CC(=O)O)c2ccc(C)cc2)nc1-c1ccc(F)c(C)c1` [compound 225], the IC50 came to 3.26 µM. For the compound `COc1ccc(Cl)cc1-c1nc(C(=O)N[C@@H](CC(=O)O)c2ccccc2F)ccc1OC` [compound 300], the IC50 is 4.11 µM.

The same assay, now with this note: read-out: Activity [μM] (IC50, cathepsin A inhibitory activity).
For `COc1ccc(C(=O)N[C@@H](CC(=O)O)c2ccc(C)cc2)nc1-c1cccc(C(F)(F)F)c1` [compound 181], the IC50 amounted to 5 µM. Regarding `COc1cccc(-c2cc(C(=O)N[C@@H](CC(=O)O)c3ccccc3Cl)cnc2OC)c1` [compound 391], the IC50 came to 10.6 µM. On to `Cc1ccccc1[C@H](CC(=O)O)NC(=O)c1cccc(-c2cccc(C(F)(F)F)c2)n1` [compound 133], for which the IC50 amounted to 5.76 µM. Take `COc1ncc(C(=O)N[C@@H](CC(=O)O)c2ccccc2Cl)cc1-c1ccc(F)cc1` [compound 346]: the IC50 was determined as 8.26 µM.

Regarding `COc1ccc(C(C)(C)C)cc1-c1nc(C(=O)N[C@@H](CC(=O)O)c2ccccc2F)ccc1OC` [compound 308], the IC50 was more than 10 µM. As to `COc1ccc(C(=O)N[C@@H](CC(=O)O)c2ccccc2C)nc1-c1ccc2ccn(C)c2c1` [compound 380], the IC50 worked out at 5.33 µM. In the case of `COc1ccc(C(=O)N[C@@H](CC(=O)O)c2ccccc2Cl)nc1-c1cccc(Cl)c1` [compound 340], the IC50 was found to be 1.51 µM. With `COc1ccc(C(=O)N[C@@H](CC(=O)O)c2ccc(C)cc2)nc1-c1cccc(-c2ccccc2)c1` [compound 204], the half-inhibitory concentration (IC50) stood at 1.4 µM. For `Cc1ccccc1[C@H](CC(=O)O)NC(=O)c1cccc(-c2ccc(F)c(F)c2)n1` [compound 151], the IC50 turned out to be 1.18 µM. With `COc1ccc(C(=O)N[C@@H](CC(=O)O)c2ccccc2C)nc1-c1ccnc(N2CCOCC2)c1` [compound 381], the 50% inhibitory concentration (IC50) is more than 10 µM. Consider `COc1ccc(C(=O)N[C@@H](CC(=O)O)c2ccccc2C)nc1-c1cccc(C(C)=O)c1` [compound 360], for which the IC50 turned out to be 2.42 µM.

Turning to `COc1ncc(C(=O)N[C@@H](CC(=O)O)c2ccccc2Cl)cc1-c1cccc(F)c1` [compound 341], the IC50 was found to be 9.86 µM.

Turning to `Cc1ccccc1[C@H](CC(=O)O)NC(=O)c1cccc(-c2ccc(F)c(Cl)c2)n1` [compound 134], the IC50 was 3.62 µM. In the case of `COc1ccc(C(=O)N[C@@H](CC(=O)O)c2ccccc2C)nc1-c1ccc(C(C)=O)cc1` [compound 361], the 50% inhibitory concentration (IC50) was 9.24 µM. Consider `COc1ccc(C(=O)N[C@@H](CC(=O)O)c2ccccc2Cl)nc1-c1ccc(C)cc1` [compound 336], for which the IC50 came out at 3.13 µM. Consider `COc1ccc(C(=O)N[C@@H](CC(=O)O)c2ccc(C)cc2)nc1-c1cccc(Cl)c1` [compound 193], for which the IC50 stood at 2.74 µM.
